Reference: ChEMBL document CHEMBL4819006, “1,4,6-Trisubstituted imidazo[4,5-c]pyridines as inhibitors of Bruton's tyrosine kinase” (Eur J Med Chem, 2021)
The source made the active and inactive calls. The calls are words filed in the database; no cut-off is given here.

Tests used:
[1] = target: Tyrosine-protein kinase Fyn (Homo sapiens) (UniProt P06241); assay: Inhibition of human recombinant full length GST-tagged FYN (M1 to L537 residues) assessed as residual activity using poly (Glu,Tyr) as substrate in presence of ATP and Ci(gamma33-P) ATP at 1 uM measured by microplate reader assay
Chain of Tyrosine-protein kinase Fyn (Homo sapiens) (P06241 2-537 limits assumed): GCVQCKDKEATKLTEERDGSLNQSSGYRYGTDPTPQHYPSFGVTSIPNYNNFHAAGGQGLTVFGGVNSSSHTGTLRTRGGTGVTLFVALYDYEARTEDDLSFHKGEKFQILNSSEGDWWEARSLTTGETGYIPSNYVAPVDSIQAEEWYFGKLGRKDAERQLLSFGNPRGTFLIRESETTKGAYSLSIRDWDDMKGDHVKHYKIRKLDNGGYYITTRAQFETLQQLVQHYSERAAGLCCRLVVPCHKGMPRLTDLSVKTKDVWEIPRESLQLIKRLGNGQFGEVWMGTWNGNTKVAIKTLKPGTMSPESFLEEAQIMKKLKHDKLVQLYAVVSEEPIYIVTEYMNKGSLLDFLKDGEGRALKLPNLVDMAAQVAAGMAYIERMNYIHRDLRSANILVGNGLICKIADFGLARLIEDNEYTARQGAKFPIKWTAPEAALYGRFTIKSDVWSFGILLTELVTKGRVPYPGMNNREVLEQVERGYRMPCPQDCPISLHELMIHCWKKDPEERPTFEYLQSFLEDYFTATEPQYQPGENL

K562 = assay: Growth inhibition of human K562 cells assessed as inhibition of cell growth measured after 72 hrs by resazurin dye based assay; assay type: functional
Rec1 = assay: Growth inhibition of human REC1 cells assessed as inhibition of cell growth measured after 72 hrs by resazurin dye based assay; assay type: functional
[2] = target: Tyrosine-protein kinase ABL1 (Homo sapiens) (UniProt P00519); assay: Inhibition of Abl (unknown origin) expressed in Sf9 cells assessed as residual activity using GGEAIYAAPFKK peptide as substrate in presence of ATP and Ci(gamma33-P)ATP at 1 uM measured by microplate reader
Chain of Tyrosine-protein kinase ABL1 (Homo sapiens) (P00519 whole entry): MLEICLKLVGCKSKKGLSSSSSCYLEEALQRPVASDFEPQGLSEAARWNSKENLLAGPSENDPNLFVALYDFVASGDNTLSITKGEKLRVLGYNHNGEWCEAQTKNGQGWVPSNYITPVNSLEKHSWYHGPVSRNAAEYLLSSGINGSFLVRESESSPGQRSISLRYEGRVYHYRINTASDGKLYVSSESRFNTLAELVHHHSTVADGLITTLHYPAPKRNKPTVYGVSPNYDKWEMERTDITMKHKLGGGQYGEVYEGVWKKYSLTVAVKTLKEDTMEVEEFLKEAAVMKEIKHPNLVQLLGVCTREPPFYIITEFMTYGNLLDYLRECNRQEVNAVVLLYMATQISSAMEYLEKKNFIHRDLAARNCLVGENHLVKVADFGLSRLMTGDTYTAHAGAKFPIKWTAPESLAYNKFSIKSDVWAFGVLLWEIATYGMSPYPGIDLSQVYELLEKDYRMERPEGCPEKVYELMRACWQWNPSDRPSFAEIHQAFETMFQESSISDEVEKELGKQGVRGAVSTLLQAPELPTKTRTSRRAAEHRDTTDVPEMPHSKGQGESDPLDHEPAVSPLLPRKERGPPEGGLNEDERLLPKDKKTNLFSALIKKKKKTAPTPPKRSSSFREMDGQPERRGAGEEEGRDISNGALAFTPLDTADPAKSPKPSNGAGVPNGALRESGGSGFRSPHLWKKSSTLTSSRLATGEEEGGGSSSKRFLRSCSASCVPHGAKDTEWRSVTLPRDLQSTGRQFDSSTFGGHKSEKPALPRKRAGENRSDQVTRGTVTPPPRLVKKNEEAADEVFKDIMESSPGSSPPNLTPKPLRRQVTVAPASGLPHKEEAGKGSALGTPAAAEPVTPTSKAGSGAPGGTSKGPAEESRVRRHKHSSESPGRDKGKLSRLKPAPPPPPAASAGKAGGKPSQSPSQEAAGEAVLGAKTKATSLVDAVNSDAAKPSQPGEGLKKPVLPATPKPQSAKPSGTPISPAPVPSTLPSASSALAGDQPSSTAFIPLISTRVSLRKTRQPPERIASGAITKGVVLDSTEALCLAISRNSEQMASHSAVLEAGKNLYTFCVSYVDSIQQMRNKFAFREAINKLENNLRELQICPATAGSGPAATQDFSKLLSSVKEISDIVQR

[3] = target: T1, Tyrosine-protein kinase BTK (Homo sapiens, UniProt Q06187); assay: Inhibition of human BTK assessed as residual activity using poly (Glu,Tyr) as substrate in presence of ATP and Ci(gamma33-P) ATP at 1 uM measured by microplate reader assay
T1 sequence (Q06187 whole entry): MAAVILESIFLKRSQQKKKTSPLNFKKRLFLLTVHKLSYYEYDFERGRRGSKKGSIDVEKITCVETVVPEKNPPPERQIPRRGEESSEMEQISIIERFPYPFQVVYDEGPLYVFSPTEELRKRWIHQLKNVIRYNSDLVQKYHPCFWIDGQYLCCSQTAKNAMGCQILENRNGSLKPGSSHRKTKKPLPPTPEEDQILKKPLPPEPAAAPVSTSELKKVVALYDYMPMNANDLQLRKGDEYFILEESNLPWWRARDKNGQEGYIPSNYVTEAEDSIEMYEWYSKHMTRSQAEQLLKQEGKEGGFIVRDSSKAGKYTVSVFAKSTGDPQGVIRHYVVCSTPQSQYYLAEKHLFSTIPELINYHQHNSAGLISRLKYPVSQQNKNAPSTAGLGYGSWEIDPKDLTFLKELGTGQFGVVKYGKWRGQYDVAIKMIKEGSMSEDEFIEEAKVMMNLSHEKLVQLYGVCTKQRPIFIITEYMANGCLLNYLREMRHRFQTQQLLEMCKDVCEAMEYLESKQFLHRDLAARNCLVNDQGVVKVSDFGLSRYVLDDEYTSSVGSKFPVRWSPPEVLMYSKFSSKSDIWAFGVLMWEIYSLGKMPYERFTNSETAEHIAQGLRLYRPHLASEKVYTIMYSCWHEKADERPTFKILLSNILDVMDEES

[4] = Growth inhibition of human patient derived UPF1H cells assessed as inhibition of cell growth measured after 72 hrs by resazurin dye based assay; assay type: functional
[5] = target: Mitogen-activated protein kinase; ERK1/ERK2 (Homo sapiens) (UniProt P27361+P28482); assay: Inhibition of ERK1/2 in human Ramos cells assessed as reduction in ERK1/2 phosphorylation at 1 to 5 uM measured after 24 hrs by western blot assay; assay type: cell-based; details: dose 1-5 µM
Chain of Mitogen-activated protein kinase; ERK1/ERK2 (Homo sapiens) (P27361 whole entry, looked up, the tested form may be a part): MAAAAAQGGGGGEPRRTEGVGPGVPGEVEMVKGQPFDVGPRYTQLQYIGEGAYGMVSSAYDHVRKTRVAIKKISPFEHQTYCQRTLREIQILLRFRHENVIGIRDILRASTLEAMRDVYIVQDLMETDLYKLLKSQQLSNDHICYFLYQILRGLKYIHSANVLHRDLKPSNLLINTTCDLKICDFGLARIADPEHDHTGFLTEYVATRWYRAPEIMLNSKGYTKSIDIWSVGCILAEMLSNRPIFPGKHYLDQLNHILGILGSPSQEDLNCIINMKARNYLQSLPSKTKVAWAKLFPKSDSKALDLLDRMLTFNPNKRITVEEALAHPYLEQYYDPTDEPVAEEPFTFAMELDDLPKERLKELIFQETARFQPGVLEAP
Chain of Mitogen-activated protein kinase; ERK1/ERK2 (Homo sapiens) (P28482 whole entry, looked up, the tested form may be a part): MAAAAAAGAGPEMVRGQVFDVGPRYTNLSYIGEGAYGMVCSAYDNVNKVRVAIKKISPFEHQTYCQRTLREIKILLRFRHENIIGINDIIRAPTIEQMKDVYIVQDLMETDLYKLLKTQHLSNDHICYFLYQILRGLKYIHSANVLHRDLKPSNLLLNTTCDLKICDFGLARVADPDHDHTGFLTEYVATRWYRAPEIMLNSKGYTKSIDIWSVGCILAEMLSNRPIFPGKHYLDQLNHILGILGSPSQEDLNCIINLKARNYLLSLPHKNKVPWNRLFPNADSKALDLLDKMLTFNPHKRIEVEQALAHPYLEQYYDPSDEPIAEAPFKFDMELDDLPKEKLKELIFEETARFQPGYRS

[6] = target: Tyrosine-protein kinase SYK (Homo sapiens) (UniProt P43405); assay: Inhibition of human recombinant GST-tagged SYK (M1 to N635 residues) assessed as residual activity using poly (Glu,Tyr) as substrate in presence of ATP and Ci(gamma33-P) ATP at 1 uM measured by microplate reader assay
[7] = target: T1, Tyrosine-protein kinase BTK; assay: Inhibition of BTK in human Ramos cells assessed as reduction of IgM stimulated BTK ([…]) phosphorylation at 1 to 5 uM measured after 24 hrs by western blot assay; assay type: cell-based; details: dose 1-5 µM
[8] = target: T1, Tyrosine-protein kinase BTK; assay: Inhibition of human BTK using poly (Glu,Tyr) as substrate in presence of ATP and Ci(gamma33-P) ATP measured by microplate reader assay
[9] = target: T1, Tyrosine-protein kinase BTK; assay: Inhibition of BTK in human Ramos cells assessed as reduction of IgM stimulated PLCgamma2 (Y1217) phosphorylation at 1 to 5 uM measured after 24 hrs by western blot assay; assay type: cell-based; details: dose 1-5 µM
[10] = target: Receptor-type tyrosine-protein kinase FLT3 (Homo sapiens) (UniProt P36888); assay: Inhibition of human recombinant […] N-terminal GST-tagged FLT3 (R571 to S993 residues) assessed as residual activity using poly (Ala, Glu, Lys, Tyr) hydrobromide as substrate in presence of ATP and Ci(gamma33-P) ATP at 1 uM measured by microplate reader assay
Chain of Receptor-type tyrosine-protein kinase FLT3 (Homo sapiens) (P36888 whole entry, the tested form may be a part): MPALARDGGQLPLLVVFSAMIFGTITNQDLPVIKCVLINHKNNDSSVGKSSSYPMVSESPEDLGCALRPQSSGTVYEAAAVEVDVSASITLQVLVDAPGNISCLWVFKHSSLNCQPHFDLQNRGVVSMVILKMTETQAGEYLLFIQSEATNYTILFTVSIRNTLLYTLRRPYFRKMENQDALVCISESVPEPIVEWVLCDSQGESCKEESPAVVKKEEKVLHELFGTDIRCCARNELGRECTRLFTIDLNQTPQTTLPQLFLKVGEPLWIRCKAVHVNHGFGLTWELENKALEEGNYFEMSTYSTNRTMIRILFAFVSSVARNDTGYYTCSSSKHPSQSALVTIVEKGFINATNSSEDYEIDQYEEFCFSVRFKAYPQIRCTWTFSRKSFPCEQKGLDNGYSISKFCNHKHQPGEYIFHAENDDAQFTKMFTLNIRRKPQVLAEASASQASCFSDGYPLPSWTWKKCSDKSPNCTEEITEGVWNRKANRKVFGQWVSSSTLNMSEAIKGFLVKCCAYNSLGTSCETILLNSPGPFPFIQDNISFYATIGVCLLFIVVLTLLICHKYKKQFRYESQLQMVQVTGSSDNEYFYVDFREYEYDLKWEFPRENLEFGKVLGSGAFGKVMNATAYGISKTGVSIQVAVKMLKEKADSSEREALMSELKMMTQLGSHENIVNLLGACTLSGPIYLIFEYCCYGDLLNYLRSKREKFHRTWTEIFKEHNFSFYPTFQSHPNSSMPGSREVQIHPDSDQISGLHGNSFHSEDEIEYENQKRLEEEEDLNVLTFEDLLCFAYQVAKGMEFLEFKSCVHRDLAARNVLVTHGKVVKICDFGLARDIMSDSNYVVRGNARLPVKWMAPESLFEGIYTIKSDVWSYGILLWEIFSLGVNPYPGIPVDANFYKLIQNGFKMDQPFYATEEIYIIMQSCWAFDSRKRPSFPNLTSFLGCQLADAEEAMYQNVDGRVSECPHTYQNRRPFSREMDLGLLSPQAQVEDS

[11] = Growth inhibition of human patient derived UPF7U cells assessed as inhibition of cell growth measured after 72 hrs by resazurin dye based assay; assay type: functional
[12] = target: Cyclin-dependent kinase 2 (Homo sapiens) (UniProt P24941); assay: Inhibition of GST-tagged CDK2/cyclinE (unknown origin) expressed in Sf9 cells assessed as residual activity using histone H1 as substrate in presence of ATP and Ci(gamma33-P) ATP at 1 uM measured by microplate reader assay
Ramos = assay: Growth inhibition of human Ramos cells assessed as inhibition of cell growth measured after 72 hrs by resazurin dye based assay; assay type: functional
[13] = target: Tyrosine-protein kinase Lck (Homo sapiens) (UniProt P06239); assay: Inhibition of recombinant LCK (unknown origin) assessed as residual activity at 1 uM
Chain of Tyrosine-protein kinase Lck (Homo sapiens) (P06239 2-509 limits assumed): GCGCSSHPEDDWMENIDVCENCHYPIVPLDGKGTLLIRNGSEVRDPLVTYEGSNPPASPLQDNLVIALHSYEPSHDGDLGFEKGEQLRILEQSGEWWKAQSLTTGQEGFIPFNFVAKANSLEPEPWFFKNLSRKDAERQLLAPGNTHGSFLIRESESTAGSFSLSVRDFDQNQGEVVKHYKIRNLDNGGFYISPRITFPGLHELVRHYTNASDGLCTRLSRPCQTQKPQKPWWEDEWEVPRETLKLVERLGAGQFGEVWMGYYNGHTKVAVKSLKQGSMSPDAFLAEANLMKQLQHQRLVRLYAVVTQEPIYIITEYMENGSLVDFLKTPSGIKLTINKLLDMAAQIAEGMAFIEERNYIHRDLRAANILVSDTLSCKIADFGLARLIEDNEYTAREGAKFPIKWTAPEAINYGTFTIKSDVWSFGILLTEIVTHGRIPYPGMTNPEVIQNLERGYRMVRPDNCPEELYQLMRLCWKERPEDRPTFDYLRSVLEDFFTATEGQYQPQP

[14] = target: T1, Tyrosine-protein kinase BTK; assay: Inhibition of BTK in human Ramos cells assessed as reduction of IgM stimulated PLCgamma1 (Y783) phosphorylation at 0.125 to 1 uM measured after 24 hrs by western blot assay relative to Ibrutinib; assay type: cell-based; details: dose 0.125-1 µM
[15] = target: Proto-oncogene tyrosine-protein kinase Src (Homo sapiens) (UniProt P12931); assay: Inhibition of recombinant SRC (unknown origin) assessed as residual activity at 1 uM
[16] = target: T1, Tyrosine-protein kinase BTK; assay: Inhibition of BTK in human Ramos cells assessed as reduction of IgM stimulated PLCgamma2 (Y1217) phosphorylation at 0.125 to 1 uM measured after 24 hrs by western blot assay relative to Ibrutinib; assay type: cell-based; details: dose 0.125-1 µM
[17] = target: T1, Tyrosine-protein kinase BTK; assay: Inhibition of BTK in human Ramos cells assessed as reduction of IgM stimulated BTK phosphorylation measured after 24 hrs by western blot assay; assay type: cell-based; details: dose 0.125-1 µM
[18] = target: T1, Tyrosine-protein kinase BTK; assay: Inhibition of BTK in human UPF7U cells assessed as reduction of IgM stimulated PLCgamma1 (Y783) phosphorylation at 0.125 to 1 uM measured after 24 hrs by western blot assay relative to Ibrutinib; assay type: cell-based; details: dose 0.125-1 µM
[19] = target: T1, Tyrosine-protein kinase BTK; assay: Inhibition of BTK in human UPF7U cells assessed as reduction of IgM stimulated PLCgamma2 (Y1217) phosphorylation at 0.125 to 1 uM measured after 24 hrs by western blot assay relative to Ibrutinib; assay type: cell-based; details: dose 0.125-1 µM
[20] = target: T1, Tyrosine-protein kinase BTK; assay: Inhibition of BTK in human UPF7U cells assessed as reduction of IgM stimulated BTK phosphorylation measured after 24 hrs by western blot assay; assay type: cell-based; details: dose 0.125-1 µM

Structure (SMILES) | Activity [1] | GI50 (K562; Homo sapiens, K562) | Activity [2] | Activity [3] | Activity [6] | IC50 [8] | Activity [10] | Activity [12] | GI50 (Ramos; Homo sapiens, Ramos) | GI50 (Rec1; Homo sapiens, Rec1) | GI50 ([4]; Homo sapiens, UPF1H) | GI50 ([11]; Homo sapiens, UPF7U) | further results
Cc1c(NC(=O)c2ccc(C(C)(C)C)cc2)cccc1-c1cc2c(ncn2C)c(Nc2ccc(C(=O)N3CCOCC3)cc2)n1 | 68.8% | 57.3 µM | > 100% | 39.7% | 74.3% | 0.527 µM | > 100% | 95.6% | 12.2 µM | 17.7 µM | 25.6 µM | 35.6 µM | 
Cc1c(NC(=O)c2ccc(C(C)(C)C)cc2)cccc1-c1cc2[nH]cnc2c(Nc2ccc(C(=O)N3CCOCC3)cc2)n1 | 80.6% | 32.7 µM | > 100% | 18.4% | 80.3% | 0.025 µM | 51.9% | 92.1% | 16.5 µM | 24 µM | 12.2 µM | 20.6 µM | inhibition [5]: inactive; inhibition [7]: Active; inhibition [9]: Active
CC(C)(C)c1ccc(C(=O)Nc2cccc(-c3cc4[nH]cnc4c(Nc4ccc(C(=O)N5CCOCC5)cc4)n3)c2)cc1 | 86.4% | 2.3 µM | 95.9% | 14.7% | 71.4% | 0.027 µM | > 100% | 98.7% | 1.2 µM | 6 µM | 1 µM | 5.5 µM | inhibition [13]: Active; inhibition [14]: Active; inhibition [15]: Active; inhibition [16]: Active; inhibition [17]: Dose-Dependent Effect; inhibition [18]: Active; inhibition [19]: Active; inhibition [20]: Dose-Dependent Effect
Cc1c(NC(=O)C2CCCCC2)cccc1-c1cc2[nH]cnc2c(Nc2ccc(C(=O)N3CCOCC3)cc2)n1 | 95.1% | 49 µM |  | 61.5% | 43.3% | 0.932 µM | 75.7% | 93% | 47.2 µM | > 50 µM | 44.1 µM | > 50 µM | inhibition [5]: inactive; inhibition [7]: Active; inhibition [9]: Active
Cc1cccc(-c2cc(Nc3ccc(C(=O)N4CCOCC4)cc3)c3nc[nH]c3n2)c1C |  | > 50 µM |  |  |  |  |  |  | > 50 µM | > 50 µM | > 50 µM | > 50 µM | 
COc1ccc(Cn2cnc3c(Nc4ccc(C(=O)N5CCOCC5)cc4)nc(-c4cccc(NC(=O)c5ccc(C(C)(C)C)cc5)c4C)cc32)cc1 | 73.9% | > 50 µM | 95.1% | 71.2% | 82.3% | > 10 µM | 42.7% | 96.7% | > 50 µM | > 50 µM | > 50 µM | > 50 µM | 
C=CC(=O)N1CCC[C@H](n2nc(-c3ccc(Oc4ccccc4)cc3)c3c(N)ncnc32)C1 | 57.5% |  | 62.8% |  | 77.3% |  | 60.3% | 69.8% |  |  |  |  | GI50 (K562): > 4 µM; GI50 (Rec1): 3.3 µM; GI50 [4]: > 4 µM; GI50 [11]: > 4 µM; GI50 (Ramos): > 4 µM
Cc1cccc(-c2cc3[nH]cnc3c(Nc3ccc(C(=O)N4CCOCC4)cc3)n2)c1C |  | > 50 µM |  |  |  |  |  |  | 45.8 µM | 42 µM | > 50 µM | > 50 µM | inhibition [5]: inactive

Further lines, with some results ahead:

Activity [1] | GI50 (K562; Homo sapiens, K562) | Activity [2] | Activity [3] | Activity [6] | IC50 [8] | Activity [10] | Activity [12] | GI50 (Ramos; Homo sapiens, Ramos) | Structure (SMILES) | GI50 (Rec1; Homo sapiens, Rec1) | GI50 ([4]; Homo sapiens, UPF1H) | GI50 ([11]; Homo sapiens, UPF7U) | further results
75.2% | > 50 µM | 69.1% | 25.3% | 62.3% | 0.264 µM | 76.2% | 89% | > 50 µM | Cc1c(NC(=O)c2cccnc2)cccc1-c1cc2[nH]cnc2c(Nc2ccc(C(=O)N3CCOCC3)cc2)n1 | > 50 µM | > 50 µM | > 50 µM | inhibition [5]: inactive; inhibition [7]: Active; inhibition [9]: Active
56.3% | > 25 µM | 39.4% | 24.2% | 66% | 0.041 µM | 33.3% | 93.6% | > 25 µM | Cc1c(NC(=O)c2ncc[nH]2)cccc1-c1cc2[nH]cnc2c(Nc2ccc(C(=O)N3CCOCC3)cc2)n1 | > 25 µM | > 12.5 µM | > 25 µM | 
84% | > 50 µM | 52.4% | 38.8% | 61.7% | 0.545 µM | 95% | 94.5% | > 50 µM | CC(=O)Nc1cccc(-c2cc3[nH]cnc3c(Nc3ccc(C(=O)N4CCOCC4)cc3)n2)c1C | > 50 µM | 35.1 µM | > 50 µM | 
78.8% | > 12.5 µM | 56.8% | 27.4% | 72.5% | 0.166 µM | > 100% | 93.7% | > 12.5 µM | Cc1c(NC(=O)c2ccccn2)cccc1-c1cc2[nH]cnc2c(Nc2ccc(C(=O)N3CCOCC3)cc2)n1 | > 12.5 µM | > 12.5 µM | > 12.5 µM | 
81% | 60.1 µM | > 100% | 43.3% | 74.1% | 0.709 µM | 64.9% | 95.3% | 18.6 µM | Cc1c(NC(=O)c2cccc(C(C)(C)C)c2)cccc1-c1cc2[nH]cnc2c(Nc2ccc(C(=O)N3CCOCC3)cc2)n1 | 64 µM | 40.3 µM | > 50 µM | 
64.7% | 10 µM | 78% | 20.9% | 92% | 0.035 µM | 53.9% | 97.9% | 10.1 µM | Cc1c(NC(=O)c2nc3ccccc3[nH]2)cccc1-c1cc2[nH]cnc2c(Nc2ccc(C(=O)N3CCOCC3)cc2)n1 | > 12.5 µM | > 12.5 µM | > 12.5 µM | inhibition [7]: Active; inhibition [9]: Active
65.3% | > 16.6 µM | 68.2% | 20.1% | 71.3% | 0.155 µM | 47% | 85.2% | > 16.6 µM | Cc1c(NC(=O)c2ccccc2)cccc1-c1cc2[nH]cnc2c(Nc2ccc(C(=O)N3CCOCC3)cc2)n1 | > 16.6 µM | > 50 µM | > 50 µM | 
36.6% | > 50 µM | 80.8% | 27.2% | 76.5% | 0.079 µM | 68.3% | 94.6% | > 50 µM | Cc1c(NC(=O)c2c[nH]cn2)cccc1-c1cc2[nH]cnc2c(Nc2ccc(C(=O)N3CCOCC3)cc2)n1 | > 50 µM | > 25 µM | > 50 µM | 
